According to PubChem BioAssay (NCI):
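Dose response: 5 concentrations. Exposure: 48 h. Format: 96-well plates. Endpoint: linear interpolation; highest concentration if not reached. Here, GI50 denotes the concentration required for 50% inhibition of growth. TGI marks complete inhibition of growth.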

Key:
Test in all cases: DTP human tumour cell line panel, 48 h
786-0 renal = tested on: 786-0 renal
EKVX NSCLC = tested on: EKVX NSCLC
HCC-2998 colon = tested on: HCC-2998 colon
HL-60(TB) leukemia = tested on: HL-60(TB) leukemia
NCI-H226 lung = tested on: NCI-H226 lung
SK-MEL-28 melanoma = tested on: SK-MEL-28 melanoma
SNB-19 CNS = tested on: SNB-19 CNS
TK-10 renal = tested on: TK-10 renal
U251 CNS = tested on: U251 CNS
UACC-257 melanoma = tested on: UACC-257 melanoma

SMILES	GI50 (786-0 renal) [µM]	TGI (786-0 renal) [µM]	GI50 (EKVX NSCLC) [µM]	TGI (EKVX NSCLC) [µM]	GI50 (HCC-2998 colon) [µM]	TGI (HCC-2998 colon) [µM]	GI50 (HL-60(TB) leukemia) [µM]	TGI (HL-60(TB) leukemia) [µM]	GI50 (NCI-H226 lung) [µM]	TGI (NCI-H226 lung) [µM]	GI50 (SK-MEL-28 melanoma) [µM]	TGI (SK-MEL-28 melanoma) [µM]	GI50 (SNB-19 CNS) [µM]	TGI (SNB-19 CNS) [µM]	GI50 (TK-10 renal) [µM]	TGI (TK-10 renal) [µM]	GI50 (U251 CNS) [µM]	TGI (U251 CNS) [µM]	TGI (UACC-257 melanoma) [µM]	GI50 (UACC-257 melanoma) [µM]
COc1cc(N)c(Cl)cc1C(=O)N[C@@H]1CCN(CCCOc2ccc(F)cc2)C[C@@H]1OC	55.5	> 100	> 100	> 100	35.2	> 100	82.4	> 100	> 100	> 100	> 100	> 100	> 100	> 100	> 100	> 100	> 100	> 100	–	–
CC(=O)/C(=N\N=C(N)N)c1ccccc1	–	> 100	–	> 100	–	> 100	–	–	–	> 100	–	> 100	–	> 100	–	> 100	–	> 100	> 100	–
C/C(=N\NC(=S)N1CCCC1)c1ccccn1	0.047	11	–	–	0.132	13.9	0.01	0.229	< 0.01	2.85	0.32	13.7	0.112	14.7	0.105	13.7	< 0.01	11.9	0.166	< 0.01
Cc1cc(C)nc(NC(=O)COc2ccc(Cl)cc2)c1	–	> 100	–	> 100	–	–	–	–	–	> 100	–	> 100	–	> 100	–	> 100	–	> 100	> 100	–
COC(=O)N[C@@H](C)CNc1nccc(-c2cn(C(C)C)nc2-c2cc(Cl)cc(NS(C)(=O)=O)c2F)n1	14.2	> 100	–	–	30.9	> 100	0.741	> 57.9	> 100	> 100	–	–	> 100	> 100	> 100	> 100	59.5	> 100	–	–
COc1ccc(N=c2nc3sc4cc(Cl)ccc4n3c(N)c2C#N)cc1	2.43	5.47	2.45	> 100	–	–	11.4	> 94.9	1.92	7.99	2.92	22.9	20.7	> 100	4.61	45.5	4.38	> 100	> 100	35.4
C[C@]12CCC3c4ccc(O)cc4CCC3C1CC[C@@H]2NC(=O)/C=C/c1ccc(O)c(O)c1 (stereo partly specified)	10.4	29.2	10.2	31.2	15.6	30.3	–	–	12.3	37.9	9.59	24.5	13.7	33.9	13.8	50.6	6.63	21.1	–	–
Fc1ccc(-c2ncn(C3CCNCC3)c2-c2ccnc(Oc3ccc(Cl)cc3)n2)cc1	4.54	10.8	6	> 21.3	4.12	7.93	4.96	11.6	–	–	4.17	7.85	6.57	> 18.7	3.97	7.97	3.66	7.24	–	–
CCCCS(=O)(=O)c1cc(Nc2ccc(O)c3c2C(=O)c2ccccc2C3=O)ccc1C	> 100	> 100	–	–	> 100	> 100	> 100	> 100	> 100	> 100	> 100	> 100	13.4	> 100	–	–	35.8	> 100	–	–
O=C(O)C(Cc1ccccc1)N1C(=O)/C(=C/C(Cl)=C/c2ccc([N+](=O)[O-])cc2)SC1=S (stereo unspecified)	2.2	5.02	2.59	7.29	1.96	3.5	–	–	1.58	3.27	2.16	4.68	–	–	–	–	1.72	3.52	4.95	1.97
O=C(O)CCN1C(=S)CSC1=S	–	> 100	–	> 100	–	–	–	–	–	> 100	–	> 100	–	> 100	–	> 100	–	> 100	> 100	–
O=c1cc(-c2ccccc2)oc2cc(OCCCCCCCCCCOc3ccc4c(=O)cc(-c5ccccc5)oc4c3)ccc12	–	> 100	–	> 100	–	> 100	–	> 100	–	–	–	> 100	–	> 100	–	–	–	> 100	> 100	–
COc1c(OC2OC(C)C(O)C(O)C2O)c(OC)c2oc(-c3ccc(O)cc3)cc(=O)c2c1O (stereo unspecified)	50.7	> 100	38.4	> 100	37.2	> 100	–	–	30.6	> 100	35.4	> 100	45.2	> 100	72.2	> 100	30.2	> 100	28.1	3.97
CSCc1ncc(-c2ccc(C(F)(F)F)cc2)c(NC2CCCCCC2)n1	> 10	> 10	–	–	> 10	> 10	> 10	> 10	> 10	> 10	> 10	> 10	> 10	> 10	> 10	> 10	> 10	> 10	> 10	> 10
C=C(c1ccccc1)c1cc2c(=O)[nH]ccc2n1C	–	> 100	–	> 100	–	> 100	–	38.1	–	–	–	> 100	–	> 100	–	> 100	–	–	> 100	–
CSC(=S)NCc1cn(C)c2ccccc12	24.8	> 100	32	> 100	25.1	98.7	–	–	23.4	64.8	> 100	> 100	40.3	> 100	28.7	> 100	28.6	> 100	> 100	54.8
NCCOCCOCC(=O)O	–	> 100	–	> 100	–	> 100	–	–	–	> 100	–	> 100	–	> 100	–	> 100	–	> 100	> 100	–
O=C(O)C12C=CC(C1)c1ccccc12 (stereo unspecified)	–	> 100	–	–	–	> 100	–	> 100	–	> 100	–	> 100	–	> 100	–	> 100	–	> 100	> 100	–
O=C(O)C1CC2C=CCC(C2)C1 (stereo unspecified)	–	> 100	–	> 100	–	–	–	> 100	–	> 100	–	> 100	–	> 100	–	> 100	–	> 100	> 100	–

SMILES	GI50 (786-0 renal) [µM]	TGI (786-0 renal) [µM]	GI50 (EKVX NSCLC) [µM]	TGI (EKVX NSCLC) [µM]	GI50 (HCC-2998 colon) [µM]	TGI (HCC-2998 colon) [µM]	GI50 (HL-60(TB) leukemia) [µM]	TGI (HL-60(TB) leukemia) [µM]	GI50 (NCI-H226 lung) [µM]	TGI (NCI-H226 lung) [µM]	GI50 (SK-MEL-28 melanoma) [µM]	TGI (SK-MEL-28 melanoma) [µM]	GI50 (SNB-19 CNS) [µM]	TGI (SNB-19 CNS) [µM]	GI50 (TK-10 renal) [µM]	TGI (TK-10 renal) [µM]	GI50 (U251 CNS) [µM]	TGI (U251 CNS) [µM]	TGI (UACC-257 melanoma) [µM]	GI50 (UACC-257 melanoma) [µM]
CCNC(=O)COc1ccc(Cl)c(C)c1	–	> 100	–	–	–	> 100	–	> 100	–	> 100	–	> 100	–	> 100	–	> 100	–	> 100	> 100	–
COc1ccc(-c2cn3ccnc3c(-c3ccc(Cl)cc3)n2)cc1	11.7	> 100	2.39	> 100	–	–	5.14	> 100	42.8	> 100	5.37	> 100	14.4	> 100	–	–	–	–	48	6.81
CN(CCOc1ccc(NS(C)(=O)=O)cc1)CCc1ccc(NS(C)(=O)=O)cc1	> 100	> 100	–	–	> 100	> 100	> 100	> 100	> 100	> 100	> 100	> 100	> 100	> 100	> 100	> 100	> 100	> 100	–	–
OC(Cc1cccc2ccccc12)CN1CCC(c2ccccc2)CC1 (stereo unspecified)	–	28.3	–	27.1	–	10.8	–	41.2	–	–	–	26.8	–	26.3	–	28.1	–	26.2	18.8	–
C=C(CN1CCN(c2ccccn2)CC1)c1ccc(C(=O)Nc2ccccc2N)cc1	1.2	8.15	5.33	> 50	0.664	1.94	2.2	> 50	–	–	2.52	> 50	4.87	29.7	1.85	8.23	1.48	> 50	> 50	2.32
COc1ccc(OCC(=O)O)c2c1CCC(C)C2=O (stereo unspecified)	–	> 100	–	> 100	–	> 100	–	> 100	–	–	–	> 100	–	> 100	–	> 100	–	> 100	> 100	–
COC(OC)c1cccnc1C	–	> 100	–	> 100	–	–	–	> 100	–	–	–	> 100	–	> 100	–	> 100	–	> 100	> 100	–
O=C1C(=O)N(c2cc(Cl)ccc2Cl)C(=O)C(=O)C1c1nc2ccccc2s1	–	> 100	–	> 100	–	–	–	> 100	–	> 100	–	> 100	–	> 100	–	> 100	–	> 100	> 100	–
COC(=O)c1c(C(=O)O)c(-c2ccccc2)c(-c2ccccc2)c(-c2ccccc2)c1-c1ccccc1	> 100	> 100	> 100	> 100	–	–	> 100	> 100	> 100	> 100	93.4	> 100	23.1	> 100	> 100	> 100	> 100	> 100	> 100	> 100
COc1cc(C2CC(c3ccc(Cl)cc3)=NN2C(C)=O)ccc1Oc1ccnc2cc(Cl)ccc12 (stereo unspecified)	2.63	> 100	–	–	> 100	> 100	> 100	> 100	–	–	–	–	> 100	> 100	–	–	3.09	> 100	> 100	> 100
Nc1ccc(C(=O)N/C(=C\c2ccc3c(c2)OCO3)c2nc3ccccc3s2)cc1	–	23.7	–	25.9	–	27.9	–	–	–	–	–	25.9	–	28.7	–	34	–	26.4	–	–
C/C(=C\c1ccccc1)C(=O)c1c(C)cc(C)cc1C	–	> 100	–	> 100	–	–	–	> 100	–	> 100	–	> 100	–	> 100	–	> 100	–	> 100	> 100	–
COC(=O)CCC(NC(=S)N/N=C(\C)c1cccs1)C(=O)OC (stereo unspecified)	–	> 100	–	> 100	–	> 100	–	–	–	> 100	–	> 100	–	> 100	–	> 100	–	> 100	> 100	–
O=C(NCCCN1CCN(CCCNC(=O)Nc2cc(Cl)ccc2Cl)CC1)Nc1cc(Cl)ccc1Cl	–	> 100	–	–	–	–	–	> 100	–	> 100	–	> 100	–	> 100	–	> 100	–	> 100	34	–
c1ccc(N2CCN(CCN3CCc4c([nH]c5ccccc45)C3c3cccnc3)CC2)cc1 (stereo unspecified)	–	> 100	–	> 100	–	> 100	–	> 100	–	–	–	> 100	–	> 100	–	> 100	–	> 100	> 100	–
CC(C)C(Br)C(=O)NCC(=O)O (stereo unspecified)	–	> 100	–	> 100	–	–	–	> 100	–	> 100	–	> 100	–	> 100	–	> 100	–	> 100	> 100	–
Cn1cnnc1Sc1c([N+](=O)[O-])nc(-c2ccc([N+](=O)[O-])cc2)n1C	–	31.8	–	76.1	–	31.8	–	–	–	89.9	–	29.6	–	> 100	–	32.9	–	30.2	29.5	–
CCNc1ccc2c(c1)C(=O)N(OS(C)(=O)=O)C2=O	–	> 100	–	> 100	–	> 100	–	–	–	97.1	–	> 100	–	> 100	–	> 100	–	> 100	> 100	–
